Columns and labels:
Format in all cases: cell-based
[1] = tested on: Bacillus megaterium (Gram +ve); assay: Staining of Gram +ve bacteria, light microscopy; set-up: change in color of bacterial stains: dose or concentration left out as unconfirmed
Method: The isolates of Saccharomyces sp. were cultured in GYE (glucose yeast extract agar) media, Bacillus sp. in Nutrient broth, and Pseudomonas sp. in King's B medium for 24 hour at 37° C. […] of this was taken and was allowed to incubate at 30 to 40° C. along with 100 μl of L.Zn (Scheme 1, Formula 1A) (1.16×10^−4 M) solution. The samples were fixed overnight at room temperature 25-30° C. with 2% (v/v) glutaraldehyde in 0.1 M phosphate buffer at pH 7.5. The samples were then washed with 0.1 M phosphate buffer (pH 7.5) at room temperature 25-30° C. for 1 hour. Post-fixation was carried out in 2% (w/v) osmium tetroxide (OsO4) in the same buffer and was washed once with 0.1 M phosphate buffer for 20 minutes. […]
We also explored the possibility of using L.Zn/L.Zn.α-CD as the staining agent for prokaryotes (Gram +ve and Gram −ve bacterial cells). […] Changes on the cell surfaces on binding of the dye, L.Zn (Scheme 1, Formula 1A) were also evident from the SEM images recorded for Gram −ve and Gram +ve bacteria, in absence and presence of staining agent (FIGS. 11C to 11F). […] The growth profile of Eukaryotic Yeast cells (Saccharomyces cerevisiae) and Prokaryotic bacterial cells ([…]) in an aqueous culture medium in absence and presence of L.Zn (Scheme 1, Formula 1A) are shown in FIG. 12. […]

[2] = tested on: Pseudomonas fluorescence (Gram −ve); assay: Staining of Gram −ve bacteria, light microscopy and growth kinetics; set-up: change in color of bacterial stains: dose or concentration left out as unconfirmed; conditions: for growth of colonies streaked on nutrient agar plates after incubation with sensor: Pseudomonas species in King's B media, 25° C., 10 mins
Method: (§1) The isolates of Saccharomyces sp. were cultured in GYE (glucose yeast extract agar) media, Bacillus sp. in Nutrient broth, and Pseudomonas sp. in King's B medium for 24 hour at 37° C. […] of this was taken and was allowed to incubate at 30 to 40° C. along with 100 μl of L.Zn (Scheme 1, Formula 1A) (1.16×10^−4 M) solution. The samples were fixed overnight at room temperature 25-30° C. with 2% (v/v) glutaraldehyde in 0.1 M phosphate buffer at pH 7.5. The samples were then washed with 0.1 M phosphate buffer (pH 7.5) at room temperature 25-30° C. for 1 hour. Post-fixation was carried out in 2% (w/v) osmium tetroxide (OsO4) in the same buffer and was washed once with 0.1 M phosphate buffer for 20 minutes. Then, the water was removed by a graded water-ethanol series; 25% ethanol for 15 min, 50% ethanol for 15 min, 75% ethanol for 30 min, 90% ethanol for 60 min, absolute alcohol for 30 min. The specimens were rinsed in buffer and coated with gold in a sputter coater (Polaron SC7620) prior to microscopy. The material was examined in a Scanning Electron Microscope (SEM) LEO 1430 VP at an accelerating Voltage of 15 kV.
(§2) The isolates of Saccharomyces sp. were cultured in GYE (glucose yeast extract agar) media, Bacillus sp. in Nutrient broth, and Pseudomonas sp. in King's B medium for 24 hour at 37° C. 1001 of this was taken and was allowed to incubate at room temperature along with 1001 of [L.Zn]=1.16×10^−4M solution (pH 7.2, 10 mM HEPES buffer solution). The samples were fixed overnight at 25 to 35° C. with 2% (v/v) glutaraldehyde in 0.1 M phosphate buffer at pH 7.5. The samples were then; washed with 0.1 M phosphate buffer (pH 7.5) at 25 to 35° C. for 1 hour. Post-fixation was carried out in 2% (w/v) osmium tetroxide (OsO4) in the same buffer and was washed once with 0.1 M phosphate buffer for 20 minutes. Then, the water was removed by a graded water-ethanol series; 25% ethanol for 15 min, 50% ethanol for 15 min, 75% ethanol for 30 min, 90% ethanol for 60 min, absolute alcohol for 30 min. The specimens were rinsed in buffer and coated with gold in a sputter coater (Polaron SC7620) prior to microscopy. The material was examined in a scanning electron microscope (SEM) LEO 1430 VP at an accelerating Voltage of 15 kV.
We also explored the possibility of using L.Zn/L.Zn.α-CD as the staining agent for prokaryotes (Gram +ve and Gram −ve bacterial cells). […] As expected stained cells for Gram +ve bacteria appeared longer as compared to those of the stained Gram −ve bacteria. The difference in the staining intensity for two different bacteria with the L.Zn.α-CD (Scheme 2) could be much better understood after going into the depth of cell biology of each bacterial cells and the detailed biochemistry involved while staining; besides, difference in cell structure and cell wall composition of the respective bacteria. […] Changes on the cell surfaces on binding of the dye, L.Zn (Scheme 1, Formula 1A) were also evident from the SEM images recorded for Gram −ve and Gram +ve bacteria, in absence and presence of staining agent (FIGS. 11C to 11F). Difference in the contrasts in the SEM images of the sample surfaces also signifies the non-homogeneous chemical nature of the sample surface. […] The growth profile of Eukaryotic Yeast cells (Saccharomyces cerevisiae) and Prokaryotic bacterial cells ([…]) in an aqueous culture medium in absence and presence of L.Zn (Scheme 1, Formula 1A) are shown in FIG. 12. […]

[3] = tested on: Yeast cells (Saccharomyces cerevisiae); assay: Staining of Yeast cells, light microscopy and SEM
Method: as §1, §2
We have therefore, been able to use the receptor molecule, L.Zn (Scheme 1, Formula 1A) for staining Eukaryotic cells. Yeast cells were exposed to the receptor molecule L.Zn (Scheme 1, Formula 1A) (1.16×10^−4 M) for 20 min or L.Zn-CD (Scheme 2) (([L.Zn]=0.5×10^−3 M [α-CD]=2.92×10^−3 M) for 2 min followed by subsequent washing with water mixtures and then viewed under a light microscope (AXIO IMAGER-Carl Zeiss).
Ethanol is known to act as a dehydrator and a good fixative of biological samples. […] This confirms the binding of the ATP ions of the cell surface to L.Zn (Scheme 1, Formula 1A) as the plausible reason for the observed staining. […] This observation could be explained on the basis of the reversible binding of ATP, produced in situ in the Yeast cells.

CN(C)c1ccc(N=Nc2ccc(S(=O)(=O)N3CCCNCCNCCCNCC3)cc2)cc1.O=[N+]([O-])[O-].O=[N+]([O-])[O-].[Zn+2] [L.Zn] was tested. Which “growth of colonies streaked on nutrient agar plates after incubation with sensor” value (“growth of colonies streaked” below) ([1]; Bacillus species in Nutrient broth, sensor 1.0×10^−4 M, 25° C., 10 mins) did it give?
Its value is “colonies of the test microbes grew”.

And the “change in color of bacterial stains” value ([1]; light microscopy)?
Its value is “distinct change in color”.

And the “growth of colonies streaked” value ([2]; sensor 1.0×10^−4 M)?
The value was “colonies of the test microbes grew”.

And the “growth of colonies streaked” value ([2]; sensor 1.25×10^−4 M)?
Its value is “colonies of the test microbes grew”.

And the “growth of colonies streaked” value ([2]; sensor 1.45×10^−4 M)?
Its value is “colonies of the test microbes grew”.

What about the “binding to ATP released during cell growth, Gram −ve compared to Gram +ve” value ([2]; extent of absorbance changes and slope, growth kinetics at 600 nm) of the same molecule?
The value was “higher binding”.

What about the “change in color of bacterial stains” value ([2]; light microscopy) of the same molecule?
Its value is “distinct change in color”.

And the “color of Yeast cells after treatment” value ([3]; L.Zn 0.116 mM, light microscopy)?
The value was “pink-violet”.

And the “growth of colonies streaked” value ([3]; Saccharamyces species in GYE media, sensor 1.0×10^−4 M, 25° C., 10 mins)?
The value was “colonies of the test microbes grew”.

What about the “control experiments: change in color of Yeast cells” value ([3]; control treatment of cells) of the same molecule?
Its value is “no such change in color was observed”.

What about the “destaining of stained Yeast cells by citrate (reversible binding)” value ([3]; excess (50 mole equivalent) of citrate ion) of the same molecule?
The value was “became colorless”.

What about the “stability of staining after washing” value ([3]; washing with water/ethanol (70/30, v/v)) of the same molecule?
The value was “stable”.
